Measured values reported in ChEMBL document CHEMBL1132770, “Selective kappa-opioid antagonists related to naltrindole. Effect of side-chain spacer in the 5'-amidinoalkyl series” (Bioorg Med Chem Lett, 2000).

What was measured:
[1] = target: T1, Mu-type opioid receptor (Homo sapiens, UniProt P35372); assay: Compound was evaluated for its binding affinity by displacing DAMGO to human cloned mu opioid receptor transfected into CHO cells using [35S]GTP-gamma-S, assay; assay type: functional, cell-based
T1 sequence (P35372 whole entry): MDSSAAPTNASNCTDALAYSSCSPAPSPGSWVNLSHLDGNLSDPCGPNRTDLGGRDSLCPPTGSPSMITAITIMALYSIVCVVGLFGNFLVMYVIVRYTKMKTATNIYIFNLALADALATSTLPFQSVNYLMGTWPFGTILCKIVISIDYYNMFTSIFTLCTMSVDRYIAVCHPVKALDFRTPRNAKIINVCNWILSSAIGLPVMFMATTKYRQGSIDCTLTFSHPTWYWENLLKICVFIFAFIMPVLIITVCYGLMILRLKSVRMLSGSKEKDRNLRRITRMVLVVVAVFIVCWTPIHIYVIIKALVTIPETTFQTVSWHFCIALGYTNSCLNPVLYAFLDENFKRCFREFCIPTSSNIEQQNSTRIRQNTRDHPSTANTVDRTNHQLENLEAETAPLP

[2] = target: T2, Delta-type opioid receptor (Homo sapiens, UniProt P41143); assay: Compound was evaluated for its binding affinity to CHO cells expressing cloned human Opioid receptor delta 1 by displacement of [3H]Cl-DPDPE; assay type: cell-based
T2 sequence (P41143 whole entry): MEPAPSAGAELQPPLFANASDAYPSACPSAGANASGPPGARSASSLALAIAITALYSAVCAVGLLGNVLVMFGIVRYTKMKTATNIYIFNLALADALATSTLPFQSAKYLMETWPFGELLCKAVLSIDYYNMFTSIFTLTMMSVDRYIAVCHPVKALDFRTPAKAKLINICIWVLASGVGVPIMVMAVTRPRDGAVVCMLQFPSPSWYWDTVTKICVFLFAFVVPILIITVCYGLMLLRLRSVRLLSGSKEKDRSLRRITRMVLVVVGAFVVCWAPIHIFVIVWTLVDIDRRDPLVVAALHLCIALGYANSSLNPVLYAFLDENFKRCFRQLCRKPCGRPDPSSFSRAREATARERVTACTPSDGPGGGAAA

[3] = target: T3, Kappa-type opioid receptor (Homo sapiens, UniProt P41145); assay: Compound was evaluated for its binding affinity to CHO cells expressing cloned human Opioid receptor kappa 1 by displacing [3H]U-69593; assay type: cell-based
T3 sequence (P41145 whole entry): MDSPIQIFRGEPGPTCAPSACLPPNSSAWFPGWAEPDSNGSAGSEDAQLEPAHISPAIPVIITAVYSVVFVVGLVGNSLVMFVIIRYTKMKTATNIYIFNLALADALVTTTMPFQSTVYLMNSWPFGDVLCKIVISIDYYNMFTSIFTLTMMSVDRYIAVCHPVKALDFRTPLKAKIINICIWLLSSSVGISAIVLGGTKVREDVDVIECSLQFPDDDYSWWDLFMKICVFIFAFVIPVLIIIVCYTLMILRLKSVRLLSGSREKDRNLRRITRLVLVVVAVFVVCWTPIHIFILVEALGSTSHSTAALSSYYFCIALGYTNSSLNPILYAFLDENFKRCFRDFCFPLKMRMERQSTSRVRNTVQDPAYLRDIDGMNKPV

[4] = target: T1, Mu-type opioid receptor; assay: Compound was evaluated for its binding affinity against CHO cells transfected with cloned human Opioid receptor mu 1 by displacing [3H]DAMGO; assay type: cell-based
[5] = target: T2, Delta-type opioid receptor; assay: Compound was evaluated for functional opioid activity by stimulation of [35S]GTP-gamma-S, in cloned human Opioid receptor delta 1 transfected into CHO cells; assay type: cell-based
[6] = target: T3, Kappa-type opioid receptor; assay: Compound was evaluated for its binding affinity by displacing [3H]U-69593 to human cloned Kappa opioid receptor transfected into CHO cells using [35S]GTP-gamma-S, assay; assay type: functional, cell-based
[7] = target: T2, Delta-type opioid receptor; assay: Compound was evaluated for its binding affinity to CHO cells expressing cloned human Opioid receptor delta 1 by displacement of [3H]-Cl-DPDPE; assay type: cell-based
[8] = target: Mu-type opioid receptor (Cavia porcellus, UniProt P97266); assay: Compound was evaluated for its binding affinity against Opioid receptor mu 1 of guinea pig brain membrane by displacing [3H]DAMGO
Chain of Mu-type opioid receptor (Cavia porcellus, UniProt P97266) (P97266 whole entry): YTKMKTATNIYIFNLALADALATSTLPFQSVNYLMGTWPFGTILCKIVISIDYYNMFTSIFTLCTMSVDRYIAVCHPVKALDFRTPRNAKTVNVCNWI

Row | Compound | Ki [1] | Ki [2] | Ki [3] | Ki [4] | Ki [5] | Ki [6] | Ki [7] | Ki [8]
1 | CCCCC(=N)NCCc1ccc2[nH]c3c(c2c1)C[C@@]1(O)C2Cc4ccc(O)c5c4C1(CCN2CC1CC1)C3O5 (some centres undefined) | 5.33 nM | 38.2 nM | 0.3 nM | 219 nM | 3.31 nM | 0.17 nM |  | 
2 | CCCCC(=N)NCc1ccc2[nH]c3c(c2c1)C[C@@]1(O)C2Cc4ccc(O)c5c4C1(CCN2CC1CC1)C3O5 (some centres undefined) |  |  |  |  |  |  | 5.5 nM | 3.5 nM
3 | NCCc1ccc2[nH]c3c(c2c1)C[C@@]1(O)C2Cc4ccc(O)c5c4C1(CCN2CC1CC1)C3O5 (some centres undefined) | 17.4 nM | 28.2 nM | 1.08 nM | 29.6 nM | 3.79 nM | 0.12 nM |  | 
